Data from patent publication US20080039481A1, “Seed Dressing for Soya Bean” (BAYER CROPSCIENCE AG, priority 2004, published 2008).

Columns and labels:
[1] = tested on: Phakopsora Pachyrhizi; experiment: Seed dressing field trial, action of fluquinconazole against soya bean rust; format: in vivo; details: natural infection (control 75%)
Description: Action of Fluquinconazole against Phakopsora Pachyrhizi Seed Dressing: Fluquinconazole 25 WPC (Wettable Powder) For dressing, the seed was shaken for 1 minute with the seed dressing in a closed plastic bag. The seed was sown in a field (4 plots, plot size in each case 10 m^2, 40 seeds per m^2) and, one day after sowing, artificially irrigated. The natural degree of infection in the control was, on average, 75%. The efficacy is expressed in percent. 0% means an efficacy which corresponds with that of the control, whereas an efficacy of 100% means that no infection is observed.

[2] = tested on: Phakopsora Pachyrhizi; experiment: Seed dressing field trial, action of prothioconazole against soya bean rust; format: in vivo; details: duration 28 days, natural infection (control 75%)
Description: Action of Prothioconazole against Phakopsora Pachyrhizi
Seed Dressing: Prothioconazole
For dressing, the seed was shaken for 1 minute with the seed dressing in a closed plastic bag.
The seed was sown in a field (4 plots, plot size in each case 10 m^2, 40 seeds per m^2) and, one day after sowing, artificially irrigated.
The natural degree of infection in the control was, on average, 75%.
The efficacy is expressed in percent. 0% means an efficacy which corresponds with that of the control, whereas an efficacy of 100% means that no infection is observed.

Measured: Efficacy

O=c1c2cc(F)ccc2nc(-n2cncn2)n1-c1ccc(Cl)cc1Cl [fluquinconazole]
100%: [1]; 5 g of fluquinconazole/100 kg of seed, duration 28 days | [1]; 50 g of fluquinconazole/100 kg of seed, duration 22 days | [1]; 50 g of fluquinconazole/100 kg of seed, duration 33 days | [1]; 50 g of fluquinconazole/100 kg of seed, duration 37 days

OC(Cc1ccccc1Cl)(Cn1nc[nH]c1=S)C1(Cl)CC1 (stereo not drawn) [prothioconazole]
100%: [2]; 5 g of prothioconazole/100 kg of seed | [2]; 10 g of prothioconazole/100 kg of seed
